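Results reflect a 48-hour exposure of cells in 96-well plates to compound at five concentrations. Here, GI50 denotes the concentration required for 50% inhibition of growth.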 The source made the active and inactive calls. Cut-off read from the data, not from the text of the source: active = GI50 up to about 1.1 µM and inactive = higher.

Among the test systems are 786-0; A498; A549; CCRF-CEM; HL-60; Hs-578T; K562; M14; MCF7; MDA-MB-231; MDA-N; NCI-H522; NCI/ADR-RES; SF-295; SF-539; SK-MEL-2; SN12C; SNB-75; SR; TK-10.
Common to all, as to experiment: NCI anticancer screen, dose series, 48 h

For `CSc1nnc(SCc2nn3c(=O)cc(C)nc3s2)s1`, the GI50 with 786-0, with A498, in the assay with A549, in the assay on CCRF-CEM, with HL-60 and in the assay on Hs-578T was > 100 µM (inactive) throughout. The GI50 with K562, in the assay on M14, in the assay on MCF7, in the assay on MDA-MB-231, in the assay with MDA-N and in the assay on NCI-H522 was > 100 µM (inactive) in each case. In addition, the GI50 in the assay with NCI/ADR-RES, in the assay on SF-295, in the assay on SF-539, in the assay with SK-MEL-2, in the assay with SN12C and with SNB-75 was > 100 µM (inactive) each time. The GI50 in the assay on SR and in the assay with TK-10 was > 100 µM (inactive) throughout.
On to `O=C(Nc1ccc(Nc2ccc3c(c2)C(=O)c2ccccc2C3=O)c2c1C(=O)c1ccccc1C2=O)c1ccccc1`, for which the GI50 in the assay with 786-0 was 38.8 µM (inactive); in the assay with A498, > 87.7 µM (inactive); in the assay with A549 it was > 72.6 µM (inactive); in the assay with CCRF-CEM, 14.6 µM (inactive); with HL-60, 17.7 µM (inactive); with Hs-578T, 32.4 µM (inactive). Further, the GI50 in the assay with K562 is 7 µM (inactive); in the assay on M14 it was > 91.8 µM (inactive); in the assay on MCF7 it was 31.3 µM (inactive); in the assay on MDA-MB-231 it was 46.6 µM (inactive); in the assay on MDA-N, 3.05 µM (inactive); with NCI-H522, 3.36 µM (inactive). For the same molecule, the GI50 in the assay with NCI/ADR-RES was 22 µM (inactive); in the assay with SF-295, 31.4 µM (inactive); with SF-539, > 23.7 µM (inactive); in the assay on SK-MEL-2, 11.9 µM (inactive); in the assay with SN12C it was > 100 µM (inactive); with SNB-75, 16.6 µM (inactive). Also, the GI50 in the assay with SR was 0.989 µM (active); in the assay with TK-10 it was 95.3 µM (inactive).
For `COc1ccc(/C=C2/NC(=S)N=C2Cl)cc1`, the GI50 with 786-0 was > 100 µM (inactive); in the assay with A498, > 100 µM (inactive); with A549 it was 85.1 µM (inactive); in the assay on CCRF-CEM, > 100 µM (inactive); with HL-60, > 100 µM (inactive); in the assay with Hs-578T it was > 100 µM (inactive). The GI50 in the assay with K562, in the assay on M14, in the assay on MCF7, in the assay with MDA-MB-231, with MDA-N and in the assay on NCI-H522 was > 100 µM (inactive) in each case. The GI50 in the assay on NCI/ADR-RES, in the assay with SF-295, in the assay with SF-539, with SK-MEL-2, with SN12C and in the assay on SNB-75 was > 100 µM (inactive) throughout. Also, the GI50 in the assay with SR and with TK-10 was > 100 µM (inactive) each time.
Take `CN(C)CCNS(=O)(=O)N(C)C`: the GI50 in the assay on 786-0, with A498, with A549, in the assay with CCRF-CEM, in the assay with HL-60 and in the assay with Hs-578T was > 100 µM (inactive) in each case. Also, the GI50 in the assay with K562, in the assay on M14, with MCF7, in the assay with MDA-MB-231, in the assay with MDA-N and with NCI-H522 was > 100 µM (inactive) each time. Besides, the GI50 in the assay on NCI/ADR-RES, in the assay on SF-295, with SF-539, in the assay on SK-MEL-2, with SN12C and in the assay on SNB-75 was > 100 µM (inactive) throughout. Besides, the GI50 in the assay with SR and in the assay on TK-10 was > 100 µM (inactive) throughout.
`O=C(O)CS(=O)(=O)C(c1ccccc1)c1ccccc1`: the GI50 in the assay on 786-0, with A498, in the assay on A549, with CCRF-CEM, in the assay on HL-60 and with Hs-578T was > 100 µM (inactive) throughout. Further, the GI50 in the assay with K562, with M14, in the assay on MCF7, in the assay with MDA-MB-231, in the assay on MDA-N and in the assay with NCI-H522 was > 100 µM (inactive) each time. In addition, the GI50 in the assay with NCI/ADR-RES, in the assay with SF-295, in the assay with SF-539, in the assay on SK-MEL-2, in the assay with SN12C and in the assay on SNB-75 was > 100 µM (inactive) in each case. Further, the GI50 with SR and with TK-10 was > 100 µM (inactive) each time.

The record behind these values is ChEMBL document CHEMBL1201862, “PubChem BioAssay data set” (2004).
